What is called GI50 is the concentration at which growth is held to half of that of the control.

This is an account of results in ChEMBL document CHEMBL1201862, “PubChem BioAssay data set” (2004).

“And” between values parts separate entries of the source, which are not always exact repeats. Equal entries are not always repeated.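 Dose response: 5 concentrations. Exposure: 48 h. Format: 96-well plates. Endpoint: linear interpolation; highest concentration if not reached. GI50 is the concentration that inhibits growth by half.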 The source made the active and inactive calls. No stated cut-off is given here; in the data, active = GI50 up to about 1.1 µM and inactive = higher.

Among the test systems are SNB-19; MDA-MB-231; PC-3; HT-29; SW-620; SK-OV-3; SK-MEL-28; LOX IMVI; NCI/ADR-RES; COLO 205; RXF 393; SF-539; HOP-92; NCI-H226; U-251; NCI-H23; UACC-257; EKVX; T47D; MCF7.
Holding throughout (assay): DTP human tumour cell line panel, 48 h

For the compound `CCCCCCCCCCCCCCCC(=O)OCC(O)C1OC(=O)C(O)=C1O` (stereo not given), the GI50 is 30.1 µM (inactive) in the test on SNB-19; 28.8 µM (inactive) with MDA-MB-231; 92 µM (inactive) in the test with PC-3; 12.8 µM (inactive) in the test with HT-29; 37.9 µM (inactive) in the test with SW-620; 35.6 µM (inactive) in the test with SK-OV-3. The GI50 in the test with SK-MEL-28 is 20.4 µM (inactive); in the test with LOX IMVI, 26.2 µM (inactive); in the test with NCI/ADR-RES it was 29.3 µM (inactive); in the test on COLO 205, > 100 µM (inactive); in the test on RXF 393 it was 36.7 µM (inactive); with SF-539, 27.4 µM (inactive). The GI50 in the test with HOP-92 is < 0.01 µM (active); with NCI-H226 it was 22.9 µM (inactive); in the test with U-251, 28.1 µM (inactive); in the test with NCI-H23, 3.21 µM (inactive); with UACC-257, > 100 µM (inactive); in the test on EKVX, > 100 µM (inactive). The GI50 was 97.9 µM (inactive) in the test with T47D and < 0.01 µM (active) in the test with MCF7.

For the compound `CCOC(=O)c1c2c(n(-c3ccc(OC)cc3)c1C)C(=O)C(=O)c1ccccc1-2`, the GI50 in the test with SNB-19 was 1.36 µM (inactive); with MDA-MB-231 it was 1.29 µM (inactive); with PC-3 it was 2.18 µM (inactive); in the test with HT-29, 2.34 µM (inactive); with SW-620 it was 1.24 µM (inactive); in the test on SK-OV-3 it was 2.38 µM (inactive). The GI50 was 2.12 µM (inactive) in the test with SK-MEL-28; 0.789 µM (active) in the test with LOX IMVI; 0.869 µM (active) in the test with NCI/ADR-RES; 2.2 µM (inactive) with COLO 205; 1.84 µM (inactive) in the test with RXF 393; 0.711 µM (active) in the test with SF-539. The GI50 was 1.85 µM (inactive) in the test with HOP-92; 1.75 µM (inactive) with NCI-H226; 1.22 µM (inactive) with U-251; 0.873 µM (active) with NCI-H23; 0.491 µM (active) in the test with UACC-257; 2.01 µM (inactive) in the test on EKVX. Besides, the GI50 in the test on T47D was 1.01 µM (active); in the test with MCF7, 0.693 µM (active).

For `Nc1ncnc2c1ccn2C1OC2COP(=O)(O)OC2C1O` (stereo not given), the GI50 in the test on SNB-19 was 1.61 µM (inactive); in the test on MDA-MB-231, 0.33 µM (active); with PC-3, 0.163 µM (active); in the test with HT-29, 0.137 µM (active); in the test with SW-620 it was 0.261 µM (active); in the test on SK-OV-3, 0.197 µM (active). Besides, the 50% growth inhibitory concentration (GI50) in the test on SK-MEL-28 is 0.515 µM (active); in the test with LOX IMVI, 0.0735 µM (active); in the test with NCI/ADR-RES it was 0.565 µM (active); in the test on COLO 205, 0.181 µM (active); in the test on RXF 393, 0.212 µM (active); in the test on SF-539 it was 3.51 µM (inactive). In addition, the GI50 in the test on HOP-92 is 0.462 µM (active); in the test with NCI-H226, 2.9 µM (inactive); in the test on U-251, 0.31 µM (active); in the test with NCI-H23, 0.885 µM (active); in the test on UACC-257, 1.26 µM (inactive); in the test with EKVX, 2.64 µM (inactive). Besides, the GI50 in the test on T47D is 0.989 µM (active); with MCF7, 0.444 µM (active).

In the case of `Cc1ccc(/C=C2/N/C(=N\N=C/C(O)C(O)C(O)CO)NC2=O)cc1` (stereo not given), the GI50 in the test with SNB-19, with MDA-MB-231, in the test with PC-3, in the test on HT-29, in the test with SW-620 and with SK-OV-3 was > 100 µM (inactive) in each case. Also, the GI50 in the test with SK-MEL-28, with LOX IMVI, with NCI/ADR-RES, in the test with COLO 205, in the test with RXF 393 and with SF-539 was > 100 µM (inactive) throughout. The GI50 with HOP-92 is > 100 µM (inactive); in the test on NCI-H226, 63.5 µM (inactive) and 66.2 µM (inactive); with U-251, > 100 µM (inactive); in the test with NCI-H23, > 10 µM (inactive); in the test with UACC-257, > 100 µM (inactive); in the test on EKVX, > 100 µM (inactive). Also, the values for the GI50 with T47D and in the test with MCF7 were 79.4 µM (inactive) and > 100 µM (inactive), respectively.

`CC(=O)OC1[C@@H](OC(C)=O)CN(OCc2ccccc2)C[C@H]1OC(C)=O` (stereo not given in full): the GI50 in the test with SNB-19 was > 100 µM (inactive); in the test with MDA-MB-231, > 100 µM (inactive); in the test with PC-3, > 100 µM (inactive); in the test on HT-29, > 100 µM (inactive); in the test on SW-620 it was > 100 µM (inactive); in the test on SK-OV-3, 33 µM (inactive). The GI50 with SK-MEL-28, in the test on LOX IMVI, in the test on NCI/ADR-RES, in the test with COLO 205, in the test with RXF 393 and with SF-539 was > 100 µM (inactive) each time. Besides, the GI50 with HOP-92, in the test with NCI-H226, in the test with U-251, in the test on NCI-H23, with UACC-257 and in the test on EKVX was > 100 µM (inactive) throughout. The GI50 with T47D and in the test on MCF7 was > 100 µM (inactive) each time.

As to `CC(C)(C)/C(O)=C\c1nc2cc(F)c(F)cc2[nH]c1=O`, the GI50 was > 100 µM (inactive) in the test with SNB-19; 25.1 µM (inactive) in the test with MDA-MB-231; > 100 µM (inactive) with PC-3; > 100 µM (inactive) in the test with HT-29; > 100 µM (inactive) with SW-620; > 100 µM (inactive) in the test on SK-OV-3. Moreover, the GI50 in the test with SK-MEL-28, with LOX IMVI, in the test on NCI/ADR-RES, in the test on COLO 205, in the test on RXF 393 and in the test on SF-539 was > 100 µM (inactive) in each case. Moreover, the GI50 in the test on HOP-92, with NCI-H226, in the test on U-251, in the test on NCI-H23, in the test on UACC-257 and in the test on EKVX was > 100 µM (inactive) throughout. In addition, the GI50 with T47D and with MCF7 was > 100 µM (inactive) each time.

Turning to `Cn1c2ccccc2c(=NNc2ccc(C(=O)O)cc2)c2ccccc21`, the GI50 in the test with SNB-19 was 21.8 µM (inactive); in the test on MDA-MB-231, 19.8 µM (inactive); in the test on PC-3 it was 14.1 µM (inactive); in the test with HT-29, 13.1 µM (inactive); in the test with SW-620 it was 16.1 µM (inactive); with SK-OV-3, 17.3 µM (inactive). Further, the GI50 was 26 µM (inactive) in the test on SK-MEL-28; 10.6 µM (inactive) in the test with LOX IMVI; 23.9 µM (inactive) with NCI/ADR-RES; 15.3 µM (inactive) with COLO 205; 15.4 µM (inactive) with RXF 393; 19.2 µM (inactive) in the test with SF-539. Also, the GI50 in the test with HOP-92 is 20.5 µM (inactive); with NCI-H226, 17.7 µM (inactive); in the test on U-251 it was 11.1 µM (inactive); in the test with NCI-H23, 21.1 µM (inactive); in the test on UACC-257, 30.1 µM (inactive); with EKVX, 9.25 µM (inactive). Moreover, the GI50 in the test on T47D was 13.4 µM (inactive); in the test on MCF7, 10.4 µM (inactive).

`Cc1ccc([N+](=O)[O-])c2c(NCCNC(=O)Cn3ccnc3[N+](=O)[O-])ccnc12`: the GI50 in the test on SNB-19 is 28.9 µM (inactive); with MDA-MB-231 it was 32 µM (inactive); with PC-3, 28.8 µM (inactive); in the test on HT-29, 32.4 µM (inactive); in the test with SW-620, 37.7 µM (inactive); in the test on SK-OV-3 it was 21.6 µM (inactive). For the same compound, the GI50 in the test with SK-MEL-28 is 57.7 µM (inactive); in the test with LOX IMVI it was 45.8 µM (inactive); in the test on NCI/ADR-RES it was > 100 µM (inactive); in the test on COLO 205 it was 41 µM (inactive); with RXF 393, 1.42 µM (inactive); in the test with SF-539 it was 35.5 µM (inactive). Further, the GI50 with HOP-92 was 26.5 µM (inactive); in the test with NCI-H226, 26.2 µM (inactive); with U-251 it was 36.6 µM (inactive); in the test with NCI-H23, 54.2 µM (inactive); in the test on UACC-257 it was 29.1 µM (inactive); in the test with EKVX, > 100 µM (inactive). The results for the GI50 with T47D and in the test with MCF7 were 35.2 µM (inactive) and 18.9 µM (inactive), respectively.

For `C=C(CN(C)C)C(=O)c1ccc(C)cc1C`, the GI50 is 32.7 µM (inactive) in the test with SNB-19; 13.3 µM (inactive) in the test with MDA-MB-231; 14.1 µM (inactive) in the test with PC-3; 7.66 µM (inactive) in the test on HT-29; 2.74 µM (inactive) in the test with SW-620; 18.5 µM (inactive) with SK-OV-3. Besides, the GI50 in the test with SK-MEL-28 is 6.1 µM (inactive); with LOX IMVI it was 5.12 µM (inactive); in the test with NCI/ADR-RES, 7 µM (inactive); in the test on COLO 205, 3.38 µM (inactive); in the test with RXF 393, 4.51 µM (inactive); in the test with SF-539 it was 12.7 µM (inactive). The GI50 in the test on HOP-92 was 3.74 µM (inactive); in the test with NCI-H226, 15.5 µM (inactive); in the test with U-251 it was 16.9 µM (inactive); in the test with NCI-H23, 10.6 µM (inactive); in the test on UACC-257 it was 9.51 µM (inactive); in the test on EKVX, 12.9 µM (inactive). Besides, the GI50 in the test on T47D was 3.31 µM (inactive); in the test on MCF7, 3.3 µM (inactive).

Regarding `O=C(NC1(c2cc3ccccc3s2)CCCCC1)C1CCC1`, the GI50 in the test with SNB-19 is > 100 µM (inactive); in the test on MDA-MB-231 it was 69.5 µM (inactive); in the test with PC-3, > 100 µM (inactive); in the test on HT-29, > 100 µM (inactive); with SW-620 it was > 100 µM (inactive); in the test with SK-OV-3, > 100 µM (inactive). The GI50 in the test on SK-MEL-28 was 66.8 µM (inactive); in the test with LOX IMVI, > 100 µM (inactive); in the test on NCI/ADR-RES, > 100 µM (inactive); in the test with COLO 205, > 100 µM (inactive); with RXF 393, > 100 µM (inactive); with SF-539 it was 23.1 µM (inactive). Also, the GI50 in the test with HOP-92, in the test with NCI-H226, in the test with U-251, in the test on NCI-H23, in the test with UACC-257 and in the test on EKVX was > 100 µM (inactive) throughout. Besides, the GI50 in the test with T47D and with MCF7 was > 100 µM (inactive) throughout.
